# Measured values reported in patent US10202408B2, “Prodrugs and methods of use thereof” (Health Innovation Ventures B.V., priority 2012, dated 2019).
# Assay: Solubility determined by HPLC
# Format: physicochemical
# Conditions: plasma or biological fluid; α-Minimal Essential Media (α-MEM) containing 5% Fetal Calf Serum (FCS)
# Procedure: Table Footnote: ^aDetermined in α-Minimal Essential Media (α-MEM) containing 5% Fetal Calf Serum (FCS). ^bDetermined in Phosphate Buffered Saline (PBS) containing 2 equivalents of sodium bicarbonate. ^cDetermined in Lactate Buffer at pH=4.
# Solubility and stability of compounds in media (+5% Fetal calf serum), phosphate buffered saline (+sodium bicarbonate) or lactate buffer (at pH=4) were determined by HPLC.
smiles,measurement,value
CS(=O)(=O)c1cc([N+](=O)[O-])c(C(N)=O)cc1N(CCBr)CCBr [compound 4],solubility,68 µM
